From article PMC2364081, “Antagonists of retinoic acid receptors (RARs) are potent growth inhibitors of prostate carcinoma cells” (British Journal of Cancer, 2001)
One block for each molecule: values may come before it.

Assays:
LNCaP cells = settings: ref Pienta et al, 1993; Heish and Wu, 1997; cited from earlier work
PC-3 cells = tested on: PC-3 cells; set-up: method as in Pienta et al, 1993; Heish and Wu, 1997; settings: ref Pienta et al, 1993; Heish and Wu, 1997; cited from earlier work
LNCaP ITS+ cells = assay: Plate colony formation (clonal proliferation) assay, serum-free (ITS+)-grown LNCaP; assay type: cell-based, human
Excerpt: (§1) Prostate cancer is one of the most common cancers in European and American males and has a high mortality rate (Landis et al, 1998; Rosenthal, 1998). Early disease is managed conservatively in Europe although in selected patients surgery is curative. In advanced disease, androgen ablation can produce symptomatic improvement, but the tumour often re-emerges in an androgen- independent and incurable form. One proposed treatment for androgen-independent prostate carcinoma is differentiation ther- apy, in which agents such as all-trans-retinoic acid (ATRA), 9-cis- retinoic acid and 1, 25-dihydroxyvitamin D3 (D3 ) are used to induce growth arrest, differentiation and sometimes apoptosis of the tumour cells (Liang et al, 1999; de Vos et al, 1997; Skowronski et al, 1994; Hedlund et al, 1997). ATRA and synthetic analogues exert their biological effects by binding to two families of retinoid receptors, […]. These are ligand-dependent transcription factors of the steroid/thyroid hormone nuclear receptor superfamily (Chambon 1994; Boehm et al, 1995). Activated RARs bind to retinoic acid-responsive elements (RAREs) in the promoters of genes and thus regulate gene expression. They also antagonize the activity of the tran- scription factor AP1 and thereby down-regulate the expression of some AP1-activated genes (Nagpal et al, 1995). One approach to unravelling the contributions of RAR sub-types to these actions has been the development of synthetic retinoids with selective activities at individual RARs and RXRs. For example, the diaryl- acetylenic retinoids allow separation of transactivation and AP1 antagonism functions at RAR (Nagpal et al, 1995). Recently, compounds that are selective for particular RAR sub-types have been synthesized: these include both agonists and antagonists (Chandraratna, 1995; Teng et al, 1999; Johnson et al, 1999). The functional selectivity of these compounds may open the way to achieving differentiation or apoptosis of tumour cells with minimal systemic side effects (Chandraratna, 1995). Cell lines that are commonly used in the evaluation of investiga- tional agents for prostate cancer include LNCaP, DU-145 and PC- 3. […] These lines are relatively insensitive to growth inhibition and induction of apoptosis by ATRA and by synthetic agonists. […] Fenretinide (4HPR) induces apoptosis of LNCaP and of PC-3 cells at 1-5 M and 25 µM, respectively (Pienta et al, 1993; Heish and Wu, 1997). Pfahl and colleagues examined the growth inhibitory effects of a panel of receptor-selective retinoids against DU145 and PC-3 cells and achieved complete growth inhibition and induction of apoptosis between 1 M and 10 M (Lu et al, 1999). […] Antagonists of retinoic acid receptors (RARs) are potent growth inhibitors of prostate carcinoma cells LA Hammond1 , CH Van Krinks2 , J Durham2 , SE Tomkins2 , RD Burnett3 , EL Jones1 , RAS Chandraratna3 and G Brown2 Divisions of 1 Cancer Studies and of 2 Immunity and Infection, University of Birmingham Medical School, Edgbaston, Birmingham B15 2TT, UK and 3 Retinoid Research, Allergan Inc., Irvine, California, USA Summary Novel synthetic antagonists of retinoic acid receptors (RARs) have been developed. To avoid interference by serum retinoids when testing these compounds, we established serum-free grown sub-lines (>3 years) of the prostate carcinoma lines LNCaP, PC3 and DU145. […] A component(s) of serum and of LNCaP-conditioned medium diminishes the activity of antagonists: this factor is not the most likely candidates IGF-1 and EGF. In vitro studies of RAR antagonists together with data from RAR-null mice lead to the hypothesis that RAR-regulated gene transcription is necessary for the survival and maintenance of prostate epithelium. […]

DU145 ITS+ cells = assay: Plate colony formation assay, serum-free (ITS+)-grown DU145; assay type: cell-based, human; settings: 14 days
Excerpt: (§2) Prostate cancer is one of the most common cancers in European and American males and has a high mortality rate (Landis et al, 1998; Rosenthal, 1998). Early disease is managed conservatively in Europe although in selected patients surgery is curative. In advanced disease, androgen ablation can produce symptomatic improvement, but the tumour often re-emerges in an androgen- independent and incurable form. One proposed treatment for androgen-independent prostate carcinoma is differentiation ther- apy, in which agents such as all-trans-retinoic acid (ATRA), 9-cis- retinoic acid and 1, 25-dihydroxyvitamin D3 (D3 ) are used to induce growth arrest, differentiation and sometimes apoptosis of the tumour cells (Liang et al, 1999; de Vos et al, 1997; Skowronski et al, 1994; Hedlund et al, 1997). ATRA and synthetic analogues exert their biological effects by binding to two families of retinoid receptors, the RARs (RAR, RAR and RAR) and the RXRs (RXR, RXR and RXR). These are ligand-dependent transcription factors of the steroid/thyroid hormone nuclear receptor superfamily (Chambon 1994; Boehm et al, 1995). Activated RARs bind to retinoic acid-responsive elements (RAREs) in the promoters of genes and thus regulate gene expression. They also antagonize the activity of the tran- scription factor AP1 and thereby down-regulate the expression of some AP1-activated genes (Nagpal et al, 1995). One approach to unravelling the contributions of RAR sub-types to these actions has been the development of synthetic retinoids with selective activities at individual RARs and RXRs. For example, the diaryl- acetylenic retinoids allow separation of transactivation and AP1 antagonism functions at RAR (Nagpal et al, 1995). Recently, compounds that are selective for particular RAR sub-types have been synthesized: these include both agonists and antagonists (Chandraratna, 1995; Teng et al, 1999; Johnson et al, 1999). The functional selectivity of these compounds may open the way to achieving differentiation or apoptosis of tumour cells with minimal systemic side effects (Chandraratna, 1995). […]

[1] = tested on: LNCaP, PC3 and DU145 cells; assay: Plate colony formation assay, stated over the three serum-free grown lines; assay type: cell-based, human; settings: stated over all three serum-free grown lines; read-out: concentration inhibiting colony formation by 50% (IC50)
Excerpt: as §1

RARγ = target: T1, RARγ (Homo sapiens, UniProt P13631); assay: Binding to baculovirus-expressed RARγ; set-up: made in house; settings: baculovirus-expressed receptor
T1 sequence (P13631 1-454): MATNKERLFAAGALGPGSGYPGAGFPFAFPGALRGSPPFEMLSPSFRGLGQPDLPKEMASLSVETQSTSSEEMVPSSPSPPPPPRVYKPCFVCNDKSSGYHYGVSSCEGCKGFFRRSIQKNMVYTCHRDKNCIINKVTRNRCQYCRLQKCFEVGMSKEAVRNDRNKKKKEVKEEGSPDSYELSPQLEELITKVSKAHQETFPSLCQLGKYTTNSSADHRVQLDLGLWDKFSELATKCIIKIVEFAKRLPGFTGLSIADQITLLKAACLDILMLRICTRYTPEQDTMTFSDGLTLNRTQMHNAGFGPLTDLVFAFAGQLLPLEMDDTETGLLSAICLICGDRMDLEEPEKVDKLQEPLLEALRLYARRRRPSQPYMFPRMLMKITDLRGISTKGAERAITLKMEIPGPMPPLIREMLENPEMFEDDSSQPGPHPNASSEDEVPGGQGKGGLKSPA
Excerpt: as §1

PC3 ITS+ cells = assay: Plate colony formation assay, serum-free (ITS+)-grown PC3; assay type: cell-based, human; settings: 14 days
Excerpt: as §2

RARα [2] = target: T2, RARα (Homo sapiens, UniProt P10276); assay: Binding to baculovirus-expressed RARα; set-up: made in house; settings: baculovirus-expressed receptor
T2 sequence (P10276 1-462): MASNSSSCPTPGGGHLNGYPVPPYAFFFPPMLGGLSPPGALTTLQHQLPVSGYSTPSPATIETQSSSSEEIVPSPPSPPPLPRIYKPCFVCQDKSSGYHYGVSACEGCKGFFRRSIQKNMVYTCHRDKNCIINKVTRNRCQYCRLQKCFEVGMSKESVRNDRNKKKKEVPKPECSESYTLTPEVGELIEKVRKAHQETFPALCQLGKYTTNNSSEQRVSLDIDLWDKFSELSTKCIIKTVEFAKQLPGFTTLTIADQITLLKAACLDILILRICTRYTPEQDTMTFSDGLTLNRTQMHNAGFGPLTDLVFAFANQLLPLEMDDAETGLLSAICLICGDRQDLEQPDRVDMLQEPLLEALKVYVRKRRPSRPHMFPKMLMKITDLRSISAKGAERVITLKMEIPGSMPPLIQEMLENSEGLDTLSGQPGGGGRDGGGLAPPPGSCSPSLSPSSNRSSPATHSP
Excerpt: as §1

RARβ [3] = target: T3, RARβ (Homo sapiens, UniProt P10826); assay: Binding to baculovirus-expressed RARβ; set-up: made in house; settings: baculovirus-expressed receptor
T3 sequence (P10826 1-455): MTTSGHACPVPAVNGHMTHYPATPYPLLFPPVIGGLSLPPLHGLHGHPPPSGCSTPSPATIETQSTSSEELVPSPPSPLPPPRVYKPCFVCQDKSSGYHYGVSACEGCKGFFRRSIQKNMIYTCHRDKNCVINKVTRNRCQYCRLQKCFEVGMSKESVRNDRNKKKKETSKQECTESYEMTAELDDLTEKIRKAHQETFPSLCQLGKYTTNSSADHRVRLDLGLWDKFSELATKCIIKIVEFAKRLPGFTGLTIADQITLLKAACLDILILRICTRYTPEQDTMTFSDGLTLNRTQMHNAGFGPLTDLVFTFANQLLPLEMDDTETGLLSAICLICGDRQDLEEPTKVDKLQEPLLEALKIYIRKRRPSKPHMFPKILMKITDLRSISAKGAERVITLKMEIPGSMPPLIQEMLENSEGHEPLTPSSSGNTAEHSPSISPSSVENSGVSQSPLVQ
Excerpt: as §1

RARβ [4] = target: T3, RARβ; assay: Transactivation by RARβ in doubly transfected CV-1 cells (MTV-TREp-LUC reporter); assay type: cell-based; set-up: expressed in transfected cells; host or cells: CV-1 cells; key to EC50 transactivation RARβ: NA: inactive; WA: weak partial agonist
Excerpt: as §2

RARα [5] = target: T2, RARα; assay: Transactivation by RARα in doubly transfected CV-1 cells (MTV-TREp-LUC reporter); assay type: cell-based; set-up: expressed in transfected cells; host or cells: CV-1 cells
Excerpt: as §2

breast carcinoma lines = tested on: breast carcinoma lines; set-up: method as in Fanjul et al, 1998; settings: low serum (0.5%); ref Fanjul et al, 1998; cited from earlier work

Molecule: CC1=C(/C=C/C(C)=C/C=C/C(C)=C/C(=O)Nc2ccc(O)cc2)C(C)(C)CCC1 [Fenretinide]
concentration inducing apoptosis (LNCaP cells): 1 to 5 µM
concentration inducing apoptosis (PC-3 cells): 25 µM

Molecule: EGF: Epidermal growth factor (R & D, Abingdon, UK) (NSDSECPLSHDGYCLHDGVCMYIEALDKYACNCVVGYIGERCQYRDLKWWELR; UniProt P01133 971-1023, looked up)
reversal of the inhibition of colony formation by 100 nM AGN194310 (LNCaP ITS+ cells; EGF at 1, 10 and 20 ng/ml): did not reverse

IC50 (DU145 ITS+ cells): 88 nM
IC50 [1]: ~100 nM
Kd (RARγ): 70 nM
IC50 (PC3 ITS+ cells): 104 nM
IC50 (LNCaP ITS+ cells; LNCaP, serum-free (ITS+), 14 days): 99 nM
Kd (RARα [2]): 300 nM
Kd (RARβ [3]): 6 nM
Molecule: Cc1ccc(C2=CCC(C)(C)c3ccc(N=Nc4ccc(C(=O)O)cc4F)cc32)cc1 [AGN194431]

Molecule: CC1(C)CCC(C)(C)c2cc(C(=O)Nc3cc(F)c(C(=O)O)c(F)c3)c(O)cc21 [AGN194078]
Kd (RARγ): > 5000 nM
EC50 transactivation RARβ (RARβ [4]): WA
EC50 (RARα [5]): 140 nM
Kd (RARα [2]): 4 nM
Kd (RARβ [3]): > 5000 nM

Molecule: COCCOCOc1ccc(C(=O)/C=C/c2ccc(C(=O)O)cc2)cc1C12CC3CC(CC(C3)C1)C2 [MX781]
concentration abolishing cell proliferation (breast carcinoma lines): > 1 µM
